ChEMBL document CHEMBL3046753, “Isocoumarin Derivative as a Novel GABA Receptor Ligand from Neosartorya quadricincta” (J Pestic Sci, 2004)
pIC50: −log10 of the molar value.

Tests used:
[1] = Inhibition of GABA receptor-induced currents in Rattus norvegicus (rat) dorsal ganglion neuron
[2] = molecular target: T1, GABA receptor subunit (Musca domestica, UniProt Q75NA5); experiment: Displacement of [3H]EBOB from GABA receptor in Musca domestica (house fly) head P2 membrane after 70 min by liquid scintillation counting
T1 sequence (Q75NA5 whole entry): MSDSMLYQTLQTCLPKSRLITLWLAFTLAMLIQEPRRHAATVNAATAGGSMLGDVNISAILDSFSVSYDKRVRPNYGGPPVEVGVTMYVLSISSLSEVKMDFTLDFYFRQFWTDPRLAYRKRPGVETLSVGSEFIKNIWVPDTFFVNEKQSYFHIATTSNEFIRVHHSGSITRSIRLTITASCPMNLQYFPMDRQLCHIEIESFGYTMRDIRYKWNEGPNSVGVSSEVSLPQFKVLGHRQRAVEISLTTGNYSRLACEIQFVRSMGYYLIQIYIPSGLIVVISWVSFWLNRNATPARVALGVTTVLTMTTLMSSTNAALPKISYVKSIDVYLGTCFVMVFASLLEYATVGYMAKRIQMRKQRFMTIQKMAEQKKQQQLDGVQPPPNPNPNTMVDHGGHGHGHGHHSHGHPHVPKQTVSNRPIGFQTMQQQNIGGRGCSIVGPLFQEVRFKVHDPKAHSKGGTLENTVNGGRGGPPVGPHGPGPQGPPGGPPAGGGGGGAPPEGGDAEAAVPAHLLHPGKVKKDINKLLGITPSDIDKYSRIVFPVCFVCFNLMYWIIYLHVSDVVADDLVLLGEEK

[3] = Displacement of [3H]EBOB from GABA receptor in Rattus norvegicus (rat) membrane after 70 min by liquid scintillation counting; format: cell membranes
[4] = molecular target: T2, GABA receptor subunit (Musca domestica) (UniProt Q75NA5); experiment: Displacement of [3H]EBOB from GABA receptor in Musca domestica (house fly) head P2 membrane at 2.2 uM after 70 min by liquid scintillation counting
T2 sequence (whole entry): T1 sequence (Q75NA5 whole entry)

SMILES	pIC50 [1]	pIC50 [2]	pIC50 [3]	inhibition [4] [%]
CC(C)(C)CCOC(=O)c1ccc(C#CCCC(=O)O)cc1	6.27	7.06	5.47	–
COc1cc(O)c2c(c1C)C(C)C(O)(COC(=O)c1ccc(O)c(CC=C(C)C)c1)OC2=O (stereo unspecified) [DIHYDROISOCOUMARIN]	–	7.06	5.47	65
